Tests used:
Assay type in all cases: in vivo
[1] = system: barnyardgrass (Echinochloa crus-galli); assay: Test A pre-/postemergence greenhouse herbicide test, visual injury rating 0-100
Summary of the method: (§1)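 Pre + post at same time; soil = loam/sand. Post stage 1–2 leaf, 2–10 cm. Formulation: non-phytotoxic solvent mix w/ surfactant. Greenhouse ~10 d, visual rating vs untreated, 0 (no effect)–100 (complete control).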

[2] = system: wheat (Triticum aestivum); assay: as above
Summary of the method: as §1

[3] = system: velvetleaf (Abutilon theophrasti); assay: as above
Summary of the method: as §1

corn (Zea mays) = assay: as above
Summary of the method: as §1

[4] = system: large (Lg) crabgrass (Digitaria sanguinalis); assay: as above
Summary of the method: as §1

[5] = system: giant foxtail (Setaria faberii); assay: as above
Summary of the method: as §1

[6] = system: morningglory (Ipomoea spp.); assay: as above
Summary of the method: as §1

[7] = system: pigweed (Amaranthus retroflexus); assay: as above
Summary of the method: as §1

wild oat (Avena fatua) = assay: Test C postemergence greenhouse test, plant response rating 0-100; conditions: for Plant response rating, Oat, Wild: scale 0 to 100
Summary of the method: (§2)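 Postemergence spray onto 1–4-leaf potted seedlings, greenhouse incubation 13–15 days. Visual percent-control rating (0–100) against untreated plants.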

[8] = system: chickweed (common chickweed, Stellaria media); assay: as above; conditions: for Plant response rating, Chickweed: scale 0 to 100
Summary of the method: as §2

kochia (Kochia scoparia) = assay: as above; conditions: for Plant response rating, Kochia: scale 0 to 100
Summary of the method: as §2

[9] = system: blackgrass (Alopecurus myosuroides); assay: Test C pre-/postemergence greenhouse test, plant response rating 0-100; conditions: Postemergence; for Plant response rating, Blackgrass: scale 0 to 100
Summary of the method: (§3)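 Plants were scored visually against controls 13–15 days after treatment on a 0–100 scale, 100 meaning complete control. Test chemicals, formulated in surfactant-containing non-phytotoxic solvent, went preemergence onto seeds in loam–sand blend or postemergence onto 1- to 4-leaf plants (2–18 cm) grown in peat-based mix.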

[10] = system: ragweed (common ragweed, Ambrosia elatior); assay: as above; conditions: Postemergence; for Plant response rating, Ragweed: scale 0 to 100
Summary of the method: as §3

C=CCn1cc(C(=O)c2ccccc2)c(-c2cc(Cl)cc(Cl)c2)n1 [Compound 60]
10: Plant response rating (0 to 100), Kochia (kochia (Kochia scoparia); 62 g ai/ha)
75: Plant response rating (0 to 100), Chickweed ([8]; 31 g ai/ha)
55: Plant response rating, Kochia (kochia (Kochia scoparia); 250 g ai/ha)
20: Plant response rating (0 to 100), Kochia (kochia (Kochia scoparia); 125 g ai/ha)
0: Plant response rating (0 to 100 scale), Barnyardgrass ([1]; Postemergence, 125 g ai/ha) | Plant response rating (0 to 100 scale), Barnyardgrass ([1]; Postemergence, 500 g ai/ha) | Barnyardgrass plant response rating (0 = no effect, 100 = complete control) ([1]; Preemergence, 125 g ai/ha) | Plant response rating (0 to 100 scale), Barnyardgrass ([1]; Preemergence, 500 g ai/ha) | Plant response rating (0 to 100 scale), Wheat ([2]; Postemergence, 125 g ai/ha) | Plant response rating (0 to 100 scale), Wheat ([2]; Postemergence, 500 g ai/ha) | Wheat plant response rating (0 = no effect, 100 = complete control) ([2]; Preemergence, 125 g ai/ha) | Plant response rating (0 to 100 scale), Corn (corn (Zea mays); Postemergence, 125 g ai/ha) | Plant response rating (0 to 100 scale), Corn (corn (Zea mays); Postemergence, 500 g ai/ha) | Corn plant response rating (0 = no effect, 100 = complete control) (corn (Zea mays); Preemergence, 125 g ai/ha) | Plant response rating (0 to 100 scale), Corn (corn (Zea mays); Preemergence, 500 g ai/ha) | Plant response rating (0 to 100 scale), Crabgrass, Large ([4]; Postemergence, 125 g ai/ha) | Plant response rating (0 to 100 scale), Crabgrass, Large ([4]; Postemergence, 500 g ai/ha) | Crabgrass, Large plant response rating (0 = no effect, 100 = complete control) ([4]; Preemergence, 125 g ai/ha) | Plant response rating (0 to 100 scale), Crabgrass, Large ([4]; Preemergence, 500 g ai/ha) | Plant response rating (0 to 100 scale), Foxtail, Giant ([5]; Postemergence, 125 g ai/ha) | Plant response rating (0 to 100 scale), Foxtail, Giant ([5]; Postemergence, 500 g ai/ha) | Foxtail, Giant plant response rating (0 = no effect, 100 = complete control) ([5]; Preemergence, 125 g ai/ha) | Plant response rating (0 to 100 scale), Foxtail, Giant ([5]; Preemergence, 500 g ai/ha) | Plant response rating (0 to 100 scale), Morningglory ([6]; Postemergence, 125 g ai/ha) | Plant response rating (0 to 100 scale), Morningglory ([6]; Postemergence, 500 g ai/ha) | Morningglory plant response rating (0 = no effect, 100 = complete control) ([6]; Preemergence, 125 g ai/ha) | Plant response rating (0 to 100 scale), Morningglory ([6]; Preemergence, 500 g ai/ha) | Plant response rating (0 to 100), Oat, Wild (wild oat (Avena fatua); 62 g ai/ha) | Plant response rating (0 to 100), Oat, Wild (wild oat (Avena fatua); 125 g ai/ha) | Plant response rating, Oat, Wild (wild oat (Avena fatua); 250 g ai/ha) | Plant response rating (0 to 100), Blackgrass ([9]; 31 g ai/ha) | Plant response rating (0 to 100), Blackgrass ([9]; 62 g ai/ha) | Plant response rating (0 to 100), Blackgrass ([9]; 125 g ai/ha) | Plant response rating, Blackgrass ([9]; 250 g ai/ha)
30: Velvetleaf plant response rating (0 = no effect, 100 = complete control) ([3]; Preemergence, 125 g ai/ha) | Plant response rating (0 to 100), Ragweed ([10]; 62 g ai/ha) | Plant response rating (0 to 100), Ragweed ([10]; 125 g ai/ha)
90: Plant response rating (0 to 100 scale), Velvetleaf ([3]; Postemergence, 125 g ai/ha) | Plant response rating (0 to 100 scale), Velvetleaf ([3]; Postemergence, 500 g ai/ha) | Plant response rating (0 to 100 scale), Pigweed ([7]; Postemergence, 500 g ai/ha) | Plant response rating (0 to 100 scale), Pigweed ([7]; Preemergence, 500 g ai/ha)
80: Plant response rating (0 to 100 scale), Pigweed ([7]; Postemergence, 125 g ai/ha)
100: Plant response rating (0 to 100), Chickweed ([8]; 125 g ai/ha) | Plant response rating, Chickweed ([8]; 250 g ai/ha)
60: Pigweed plant response rating (0 = no effect, 100 = complete control) ([7]; Preemergence, 125 g ai/ha)
40: Plant response rating (0 to 100 scale), Velvetleaf ([3]; Preemergence, 500 g ai/ha)
35: Plant response rating, Ragweed ([10]; 250 g ai/ha)

Fc1cccc(NN=C(c2ccccc2)c2c[nH]nc2-c2cc(Cl)cc(Cl)c2)c1 [Compound 58]
40: Plant response rating (0 to 100), Ragweed ([10]; 125 g ai/ha)
0: Plant response rating (0 to 100 scale), Barnyardgrass ([1]; Postemergence, 1000 g ai/ha) | Plant response rating (0 to 100 scale), Barnyardgrass ([1]; Preemergence, 1000 g ai/ha) | Plant response rating (0 to 100 scale), Wheat ([2]; Postemergence, 1000 g ai/ha) | Plant response rating (0 to 100 scale), Wheat ([2]; Preemergence, 1000 g ai/ha) | Plant response rating (0 to 100 scale), Corn (corn (Zea mays); Postemergence, 1000 g ai/ha) | Plant response rating (0 to 100 scale), Corn (corn (Zea mays); Preemergence, 1000 g ai/ha) | Plant response rating (0 to 100 scale), Crabgrass, Large ([4]; Postemergence, 1000 g ai/ha) | Plant response rating (0 to 100 scale), Crabgrass, Large ([4]; Preemergence, 1000 g ai/ha) | Plant response rating (0 to 100 scale), Foxtail, Giant ([5]; Postemergence, 1000 g ai/ha) | Plant response rating (0 to 100 scale), Foxtail, Giant ([5]; Preemergence, 1000 g ai/ha) | Plant response rating (0 to 100 scale), Morningglory ([6]; Postemergence, 1000 g ai/ha) | Plant response rating (0 to 100 scale), Morningglory ([6]; Preemergence, 1000 g ai/ha) | Plant response rating (0 to 100), Oat, Wild (wild oat (Avena fatua); 62 g ai/ha) | Plant response rating (0 to 100), Oat, Wild (wild oat (Avena fatua); 125 g ai/ha) | Plant response rating, Oat, Wild (wild oat (Avena fatua); 250 g ai/ha) | Plant response rating, Oat, Wild (wild oat (Avena fatua); 500 g ai/ha) | Plant response rating (0 to 100), Blackgrass ([9]; 62 g ai/ha) | Plant response rating (0 to 100), Blackgrass ([9]; 125 g ai/ha) | Plant response rating, Blackgrass ([9]; 250 g ai/ha) | Plant response rating, Blackgrass ([9]; 500 g ai/ha)
100: Plant response rating (0 to 100 scale), Pigweed ([7]; Preemergence, 1000 g ai/ha) | Plant response rating (0 to 100), Chickweed ([8]; 125 g ai/ha) | Plant response rating, Chickweed ([8]; 250 g ai/ha) | Plant response rating, Chickweed ([8]; 500 g ai/ha)
65: Plant response rating, Ragweed ([10]; 500 g ai/ha)
98: Plant response rating, Kochia (kochia (Kochia scoparia); 250 g ai/ha) | Plant response rating, Kochia (kochia (Kochia scoparia); 500 g ai/ha)
15: Plant response rating (0 to 100), Kochia (kochia (Kochia scoparia); 62 g ai/ha)
70: Plant response rating (0 to 100), Chickweed ([8]; 62 g ai/ha)
90: Plant response rating (0 to 100 scale), Velvetleaf ([3]; Postemergence, 1000 g ai/ha) | Plant response rating (0 to 100 scale), Velvetleaf ([3]; Preemergence, 1000 g ai/ha) | Plant response rating (0 to 100 scale), Pigweed ([7]; Postemergence, 1000 g ai/ha)
50: Plant response rating (0 to 100), Kochia (kochia (Kochia scoparia); 125 g ai/ha) | Plant response rating, Ragweed ([10]; 250 g ai/ha)
10: Plant response rating (0 to 100), Ragweed ([10]; 62 g ai/ha)

Reference: patent US10167262B2, “Herbicidal substituted 3-arylpyrazoles” (FMC CORPORATION, priority 2014, dated 2019)
